Experimental data published in patent US20230278972A1, “SUBSTITUTED HALOALKYL SULFONANILIDE HERBICIDES” (FMC Corporation, priority 2020, published 2023).

Key:
Assay type in all cases: in vivo
[1] = tested on: Ryegrass, Italian (Italian ryegrass, Lolium multiflorum); test: Test A1 postemergence, Ryegrass, Italian; conditions: Postemergence
Outline: (§1)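 Herbicidal response was scored on plants treated either preemergence, by directed spray onto soil of a loam–sand blend after sowing, or postemergence on potted plants at the one- to two-leaf stage, 2–10 cm high. Test chemicals were carried in a non-phytotoxic solvent mix with surfactant.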

[2] = tested on: blackgrass (Alopecurus myosuroides); test: Test A1 preemergence, blackgrass
Outline: as §1

[3] = tested on: galium (catchweed bedstraw, Galium aparine); test: Test A1 postemergence, galium; conditions: Postemergence
Outline: as §1

[4] = tested on: Oat, Wild (wild oat, Avena fatua); test: Test A1 postemergence, Oat, Wild; conditions: Postemergence
Outline: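 Pre: seeds in loam/sand blend, directed soil spray. Post: potted plants, same soil, 2–10 cm, 1–2 leaf stage. Chemicals in non-phytotoxic solvent + surfactant for both.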

[5] = tested on: ducksalad (Heteranthera limosa); test: Test B1 flooded paddy test, ducksalad; conditions: 250 g ai/ha, Flood, applied to paddy water, 2-leaf stage, visually evaluated after 10 to 14 days
Excerpt: A dash (-) response means no test result.

kochia (Bassia scoparia) = test: Test A1 preemergence, kochia
Outline: as §1

[6] = 31 g ai/ha, 0 to 100 scale (0 no effect, 100 complete control), 10 days
[7] = 31 g ai/ha, 0 to 100 scale (0 no effect, 100 complete control)
[8] = 125 g ai/ha, 0 to 100 scale, 0 no effect, 100 complete control

SMILES	Plant response rating, Ryegrass, Italian [1, 6]	Plant response rating, Ryegrass, Italian ([1]; 125 g ai/ha, 0 to 100 scale)	Plant response rating, Blackgrass [2, 7]	Plant response rating, Blackgrass [2, 8]	Plant response rating, Galium [3, 6]	Plant response rating, Galium ([3]; 125 g ai/ha, 0 to 100 scale)	Plant response rating, Oat, Wild ([4]; 125 g ai/ha, 0 to 100 scale)	Plant response rating, Ducksalad (0 to 100 scale, 0 is no effect, 100 is complete control) [5]	Plant response rating, Kochia (kochia (Bassia scoparia); [7])	Plant response rating, Kochia (kochia (Bassia scoparia); [8])	Plant response rating, Oat, Wild [4, 6]
Cc1c(NS(=O)(=O)C(F)(F)F)cc(C(=O)N2CCOCC2)c(C)c1C [Compound 289, 1,1,1-Trifluoro-N-[2,3,4-trimethyl-5-(4-morpholinylcarbonyl)phenyl]methanesulfonamide]	30	60	0	60	60	80	20	95	20	80	
Cc1cc(C)c(C2=NOC3CCCCCC23)cc1NS(=O)(=O)C(F)(F)F (centres unmarked) [Compound 292]	0	30	0	30	80	80	30	95	30	80	10
Cc1cc(C)c(N(C(=O)OC(C)C)S(=O)(=O)C(F)(F)F)cc1C1=NOC2CCCC12 (centres unmarked) [Compound 295]	0	30	0	0	50	60	0	0	0	30	0
Cc1cc(C)c(N(S(=O)(=O)C(F)(F)F)S(=O)(=O)C(F)(F)F)cc1C1=NOC2COCC12 (centres unmarked) [Compound 296]	0	40	10	60	50	80	10	20	60	90	0
Cc1cc(C)c(C2=NOC3COCC23)cc1NS(=O)(=O)C(F)(F)F (centres unmarked) [Compound 297]	0	60	20	40	80	90	30	50	80	90	20
Cc1cc(C)c(N(C(=O)OCC(C)C)S(=O)(=O)C(F)(F)F)cc1C1=NOC2CCCC12 (centres unmarked) [Compound 299]	30	50	0	30	40	60	0	55	0	50	0
Cc1cc(C)c(N(COC(=O)C(C)(C)C)S(=O)(=O)C(F)(F)F)cc1C1=NOC2COCC12 (centres unmarked) [Compound 301]	0	60	30	40	70	90	10	50	30	80	0
Cc1cc(Br)c(C2=NOC3CCCC23)cc1NS(=O)(=O)C(F)(F)F (centres unmarked) [Compound 302]	0	0	0	0	0	0	0	70	30	80	0
Cc1cc(F)c(NS(=O)(=O)C(F)(F)F)cc1C1=NOC2(CCCC2)C1 [Compound 303]	0	60	0	40	60	90	20	0	20	20	0
COc1cc(C)c(C2=NOC3(CCCC3)C2)cc1NS(=O)(=O)C(F)(F)F [Compound 304]	0	0	0	40	0	0	0	0	0	0	0
CCc1cc(C)c(NS(=O)(=O)C(F)(F)F)cc1C1=NOC2CCCC12 (centres unmarked) [Compound 305]	0	40	10	40	50	60	20	90	0	40	20
Cc1cc(C(F)(F)F)c(C2=NOC3CCCC23)cc1NS(=O)(=O)C(F)(F)F (centres unmarked) [Compound 306]	0	10	0	0	60	80	20	85	0	30	0
Cc1cc(C2CC2)c(C2=NOC3CCCC23)cc1NS(=O)(=O)C(F)(F)F (centres unmarked) [Compound 307]	20	80	0	50	40	60	20	70	0	10	0
Cc1cc(Br)c(NS(=O)(=O)C(F)(F)F)cc1C1=NOC2(CCCC2)C1 [Compound 309]	0	30	30	60	40	80	20	60	0	50	0
Cc1cc(F)c(C2=NOC3CCCC23)cc1NS(=O)(=O)C(F)(F)F (centres unmarked) [Compound 310]	20	30	0	0	0	0	10	0	0	40	0
